Test results from patent US9669044B2, “Aminoglycoside and azole compositions and methods” (Utah State University, priority 2010, dated 2017).
Converted amounts (≈) assume the structure as drawn. Like-named read-outs stand apart in the source and are kept apart here.

Key:
[1] = tested on: Micrococcus luteus; experiment: Bacterial MIC test in trypticase soy broth; assay type: cell-based; conditions: 35° C., 12-18 hrs
Experimental: (§1) For purposes of the experiments discussed in this paragraph, the MIC is defined as the lowest concentration of compound needed to inhibit the growth of bacteria. A solution of a selected bacterium was inoculated into trypticase soy broth (Difco, B D, Franklin Lakes, N.J., USA), at 35° C. and incubated for 1-2 hours. […] The 96-well plate was incubated at 35° C. for 12-18 hrs. The MIC tests were repeated at least three times.

[2] = tested on: Escherichia coli B; experiment: Bacterial MIC test in trypticase soy broth; assay type: cell-based; conditions: 35° C., 12-18 hrs
Experimental: as §1

[3] = tested on: Azole-resistant Candida albicans ATCC 10231; experiment: Microdilution checkerboard assay of K20 and azoles; assay type: cell-based; conditions: for MIC of azole in combination with K20: combined with K20; for Effect (drug interaction class by FICI) / FICI (Fractional Inhibitory Concentration Index): the row's azole combined with K20; for MIC: Candida albicans, ATCC10231, read-out: MIC, azole alone
[4] = tested on: Rhodotorula pilimanae; experiment: Disk diffusion growth inhibitory assay; assay type: cell-based; parameters: Relative Activity (zone of inhibition diameter): key: +++, considerable activity; ++, moderate activity; −−−, no activity
[5] = tested on: Fusarium graminearum; experiment: microbe, parasite or virus in culture; assay type: cell-based; conditions: for MIC: Fusarium graminearum, read-out: MIC (growth inhibition)
[6] = tested on: Azole-resistant Candida albicans ATCC 10231; experiment: Disk diffusion test for synergistic inhibition by itraconazole and K20; assay type: cell-based
[7] = tested on: Chinese Hamster Ovary (CHO) cells (line 1-15); assay type: cell-based; conditions: 3.7 μg mL^−1
Experimental: Method: […] The cells were transferred into sterile 50 mL Falcon conical plastic tubes containing 10 mL of the medium at a cell density of 2.5×10^5 cells mL^-1. […] The suspensions were incubated with continuous agitation for 48 h at 37° C. with 5% CO2 in a humidified incubator. After 24 and 48 h, lmL portions of the cell culture suspensions (drug treated or untreated) were transferred to Beckman Coulter Vi-Cell XR cups and mixed with Trypan Blue to determine cell counts and viability in a Beckman Coulter Vi-Cell counter.

[8] = tested on: Escherichia coli TG1; assay type: cell-based; parameters: key to the marks not given beside the values; also: key: +++, considerable activity; ++, moderate activity; −−−, no activity
[9] = tested on: Staphylococcus aureus ATCC 6538; experiment: Disk diffusion growth inhibitory assay; assay type: cell-based; parameters: key to the marks not given beside the values; conditions: PDA-CA medium
[10] = tested on: Micrococcus luteus; experiment: Disk diffusion growth inhibitory assay; assay type: cell-based; parameters: key to the marks not given beside the values; conditions: PDA-CA medium
[11] = tested on: Rhodotorula pilimanae; experiment: microbe, parasite or virus in culture; assay type: cell-based; conditions: Rhodotorula mucilaginosa
[12] = tested on: Fusarium oxysporum; experiment: Disk diffusion growth inhibitory assay; assay type: cell-based; parameters: key: +++, considerable activity; ++, moderate activity; −−−, no activity; conditions: PDA-CA medium
[13] = tested on: Ulocladium spp.; experiment: Disk diffusion growth inhibitory assay; assay type: cell-based; parameters: key: +++, considerable activity; ++, moderate activity; −−−, no activity; conditions: PDA-CA medium
[14] = tested on: Fusarium culmorum; assay type: cell-based; parameters: key to the marks not given beside the values; also: key: +++, considerable activity; ++, moderate activity; −−−, no activity
[15] = tested on: Microdochium nivale; assay type: cell-based; parameters: key to the marks not given beside the values; also: key: +++, considerable activity; ++, moderate activity; −−−, no activity
[16] = tested on: Penicillium spp; assay type: cell-based; parameters: key to the marks not given beside the values; also: key: +++, considerable activity; ++, moderate activity; −−−, no activity
[17] = tested on: Fusarium graminearum; assay type: cell-based; conditions: disk diffusion, PDA-CA medium
[18] = tested on: Azole-resistant Candida albicans ATCC 10231; experiment: Time-kill curves of itraconazole and K20; conditions: K20 alone, 32 μg mL^−1
Experimental: Method: Strain Candida albicans ATCC 10231 was prepared at an inoculum size of 10^5 c.f.u. mL^−1 in PDB-CA medium. The drug concentrations used were 32 μg mL^−1 for K20 and 0.18 μg mL^−1 for itraconazole. At designated times (0, 3, 6, 9, 24 and 48 h after incubation), 100 μL aliquots were removed from each solution and serially diluted 10-fold in sterile water. One hundred μL volumes of each dilution were streaked on agar surfaces of potato dextrose agar plates to allow growth. Colony counts were determined after incubation for 48 h. The experiment was performed triplicate.

[19] = tested on: Cladosporium cladosporioides; assay type: cell-based; parameters: key to the marks not given beside the values; also: key: +++, considerable activity; ++, moderate activity; −−−, no activity
[20] = tested on: Mucor haemalis; experiment: Disk diffusion growth inhibitory assay; assay type: cell-based; parameters: key: +++, considerable activity; ++, moderate activity; −−−, no activity; conditions: PDA-CA medium
[21] = tested on: Candida albicans ATCC 10231; experiment: Disk diffusion growth inhibitory assay; assay type: cell-based; parameters: key: +++, considerable activity; ++, moderate activity; −−−, no activity; conditions: PDA-CA medium
[22] = tested on: Saccharomyces cerevisiae W303C; assay type: cell-based; parameters: key to the marks not given beside the values; also: key: +++, considerable activity; ++, moderate activity; −−−, no activity
[23] = tested on: Rhizopus stolonifer; experiment: Disk diffusion growth inhibitory assay; assay type: cell-based; parameters: key: +++, considerable activity; ++, moderate activity; −−−, no activity; conditions: PDA-CA medium

For NC[C@H]1O[C@H](O[C@H]2[C@H](O)[C@@H](O[C@H]3O[C@H](CO)[C@@H](O)[C@H](N)[C@H]3O)[C@H](N)C[C@@H]2N)[C@H](N)[C@@H](O)[C@@H]1O [kanamycin B], the MIC [1] was 0.98 µg/mL (≈ 2.03 µM) and the MIC [2] was 1.95 µg/mL (≈ 4.03 µM).
Clc1ccccc1C(c1ccccc1)(c1ccccc1)n1ccnc1 [chlotrimazole] was tested, and the “MIC, azole alone” value ([3]; checkerboard, PDB-CA) was 1.25 µg/mL, the “MIC of azole in combination with K20” value ([3]; checkerboard) was 0.15 µg/mL and the “Effect (drug interaction class by FICI)” value [3] was “synergy”. For the same compound, the “FICI (Fractional Inhibitory Concentration Index)” value [3] was 0.18.
For OC(Cn1cncn1)(Cn1cncn1)c1ccc(F)cc1F [fluconazole], the MIC ([3]; checkerboard, PDB-CA) was greater than 24 µg/mL, the “MIC of azole in combination with K20” value ([3]; checkerboard) was 3 µg/mL and the “Effect (drug interaction class by FICI)” value [3] was “synergy”. For the same compound, the “FICI (Fractional Inhibitory Concentration Index)” value [3] was 0.18.
With CC(=O)N1CCN(c2ccc(OCC3COC(Cn4ccnc4)(c4ccc(Cl)cc4Cl)O3)cc2)CC1 (stereo not drawn) [ketoconazole] the MIC ([3]; checkerboard, PDB-CA) was 24 µg/mL, the “MIC of azole in combination with K20” value ([3]; checkerboard) was 1.5 µg/mL and the “Effect (drug interaction class by FICI)” value [3] was “synergy”. For the same compound, the “FICI (Fractional Inhibitory Concentration Index)” value [3] was 0.31.
In the case of CC[C@@H]([C@H](C)O)n1ncn(-c2ccc(N3CCN(c4ccc(OC[C@@H]5CO[C@@](Cn6cncn6)(c6ccc(F)cc6F)C5)cc4)CC3)cc2)c1=O [posaconazole], the MIC ([3]; checkerboard, PDB-CA) is reported as greater than 0.75 µg/mL, the “MIC of azole in combination with K20” value ([3]; checkerboard) is reported as 0.09 µg/mL and the “Effect (drug interaction class by FICI)” value [3] is reported as “synergy”. For the same compound, the “FICI (Fractional Inhibitory Concentration Index)” value [3] was 0.24.
Clc1ccc(C(Cn2ccnc2)OCc2ccsc2Cl)c(Cl)c1 (stereo not drawn) [tioconazole] was tested, and the MIC ([3]; checkerboard, PDB-CA) was 0.25 µg/mL, the “MIC of azole in combination with K20” value ([3]; checkerboard) was 0.03 µg/mL and the “Effect (drug interaction class by FICI)” value [3] was “synergy”. For the same compound, the “FICI (Fractional Inhibitory Concentration Index)” value [3] was 0.25.
In the case of Cc1ccc(S(=O)(=O)OC[C@H]2OC(O[C@@H]3C(N)CC(N)C(O[C@H]4OC(CN)[C@@H](O)[C@H](O)C4O)[C@@H]3O)[C@H](O)[C@H](N)C2O)cc1 (stereo partly drawn) [K19, 6″-O-toluenesulfonylkanamycin A], the “inhibition of Rhodotorula” value ([4]; result in words, assay type (MIC or disk diffusion) not stated) is reported as “relatively little but nevertheless some inhibition of Rhodotorula”.
In the case of CCCCCCCC(=O)OC[C@H]1OC(O[C@@H]2C(N)CC(N)C(O[C@H]3OC(CN)[C@@H](O)[C@H](O)C3O)[C@@H]2O)[C@H](O)[C@H](N)C1O (stereo partly drawn) [K05, 6″-O-octanoylkanamycin A], the MIC [5] is reported as greater than 62.5 µg/mL and the “concentration giving no pigmentation” value ([5]; against Fusarium graminearum) is reported as 31.25 µg/mL.
For CC1(C)CCC(Cc2ccc(Cl)cc2)C1(O)Cn1cncn1 (stereo not drawn) [metconazole], the MIC ([3]; checkerboard, PDB-CA) was 2.5 µg/mL, the “MIC of azole in combination with K20” value ([3]; checkerboard) was 0.15 µg/mL and the “Effect (drug interaction class by FICI)” value [3] was “synergy”. The “FICI (Fractional Inhibitory Concentration Index)” value [3] was 0.12.
With CCCCCCS(=O)(=O)OC[C@H]1OC(O[C@@H]2C(N)CC(N)C(O[C@H]3OC(CN)[C@@H](O)[C@H](O)C3O)[C@@H]2O)[C@H](O)[C@H](N)C1O (stereo partly drawn) [K22, 6″-O-hexanesulfonylkanamycin A] the MIC [5] was 31.3 µg/mL (≈ 49.5 µM).
In the case of C[C@@H](c1ncncc1F)[C@](O)(Cn1cncn1)c1ccc(F)cc1F [voriconazole], the MIC ([3]; checkerboard, PDB-CA) is reported as greater than 1 µg/mL, the “MIC of azole in combination with K20” value ([3]; checkerboard) is reported as 0.125 µg/mL and the “Effect (drug interaction class by FICI)” value [3] is reported as “synergy”. For the same compound, the “FICI (Fractional Inhibitory Concentration Index)” value [3] was 0.15.
In the case of CCCCCCCCNC[C@H]1OC(O[C@@H]2C(N)CC(N)C(O[C@H]3OC(CN)[C@@H](O)[C@H](O)C3O)[C@@H]2O)[C@H](O)[C@H](N)C1O (stereo partly drawn) [K17, 6″-deoxy-6″-octylaminokanamycin A], the “activity in inhibition zone assay” value ([4]; against Rhodotorula pilimanae, result in words) is reported as “Not determined. Only inhibition zone assay and not active against Rhodotorula pilimanae”.
With COC(=O)N(OC)c1ccccc1COc1ccn(-c2ccc(Cl)cc2)n1 [pyraclostrobin] the MIC ([3]; checkerboard, PDB-CA) was 6 µg/mL, the “MIC of azole in combination with K20” value ([3]; checkerboard) was 0.75 µg/mL and the “Effect (drug interaction class by FICI)” value [3] was “synergy”. For the same compound, the “FICI (Fractional Inhibitory Concentration Index)” value [3] was 0.25.
CCC(C)n1ncn(-c2ccc(N3CCN(c4ccc(OCC5COC(Cn6cncn6)(c6ccc(Cl)cc6Cl)O5)cc4)CC3)cc2)c1=O (stereo not drawn) [itraconazole] was tested, and the “Zone of growth inhibition / fungicidal activity” value ([6]; ITC alone, 0.5 μg mL^−1 per disc) was “no fungicidal activities”, the “decrease in cell viability” value [7] was 63% and the MIC ([3]; checkerboard, PDB-CA) was greater than 3 µg/mL. The “MIC of azole in combination with K20” value ([3]; checkerboard) was 0.18 µg/mL, the “Effect (drug interaction class by FICI)” value [3] was “synergy” and the “FICI (Fractional Inhibitory Concentration Index)” value [3] was 0.31.
With NCC1O[C@H](OC2C(N)CC(N)[C@@H](OC3O[C@H](CO)C(O)[C@@H](N)[C@H]3O)[C@H]2O)C(O)[C@@H](O)[C@@H]1O (stereo partly drawn) [kanamycin A] the “Relative Activity (zone of inhibition diameter)” value [8] was “+++”, the “Relative Activity (zone of inhibition diameter)” value [9] was “+++” and the “Relative Activity (zone of inhibition diameter)” value [10] was “+++”. It also gave an MIC ([1]; read-out: MIC) of 0.98 µg/mL (≈ 2.02 µM) and an MIC ([2]; read-out: MIC) of 1.95 µg/mL (≈ 4.02 µM).
CCCCCCCCSC[C@H]1OC(O[C@@H]2C(N)CC(N)C(O[C@H]3OC(CN)[C@@H](O)[C@H](O)C3O)[C@@H]2O)[C@H](O)[C@H](N)C1O (stereo partly drawn) [K18, 6″-deoxy-6″octylthiokanamycin A] showed an MIC [11] of 62.5 µg/mL (≈ 102 µM) and an MIC [5] of 15.6 µg/mL (≈ 25.5 µM).
With CCCCCCCCS(=O)(=O)OCC1OC(OC2C(N)CC(N)C(OC3OC(CN)C(O)C(O)C3O)C2O)C(O)C(N)C1O (stereo not drawn) [K20, 6″-O-octanesulfonylkanamycin A] the “Relative Activity (zone of inhibition diameter)” value [12] was “++”, the “Zone of growth inhibition / fungicidal activity” value ([6]; K20 alone, 32 μg mL^−1 per disc) was “no fungicidal activities” and the “Relative Activity (zone of inhibition diameter)” value [13] was “+++”. For the same compound, the “Relative Activity (zone of inhibition diameter)” value [14] was “+++”, the “Relative Activity (zone of inhibition diameter)” value [4] was “+++” and the “Relative Activity (zone of inhibition diameter)” value [15] was “+++”. The “Relative Activity (zone of inhibition diameter)” value [16] was “++”, the “Relative Activity (zone of inhibition diameter)” value [17] was “^b+++” and the time-kill effect [18] was “the same as the control”. For the same compound, the “Relative Activity (zone of inhibition diameter)” value [19] was “++”, the “Relative Activity (zone of inhibition diameter)” value [20] was “+++” and the MIC [1] was 62.5 µg/mL (≈ 94.6 µM). For the same compound, the MIC [2] was 250 µg/mL (≈ 378 µM), the “MIC, K20 alone” value ([3]; checkerboard, PDB-CA) was 128 µg/mL and the “MIC of K20 in combination” value ([3]; in combination with chlotrimazole) was 8 µg/mL. The “MIC of K20 in combination” value ([3]; in combination with fluconazole) was 16 µg/mL, the “MIC of K20 in combination” value ([3]; in combination with itraconazole) was 32 µg/mL and the “MIC of K20 in combination” value ([3]; in combination with ketoconazole) was 32 µg/mL. For the same compound, the “MIC of K20 in combination” value ([3]; in combination with metconazole) was 8 µg/mL, the “MIC of K20 in combination” value ([3]; in combination with posaconazole) was 16 µg/mL and the “MIC of K20 in combination” value ([3]; in combination with pyraclostrobin) was 16 µg/mL. The “MIC of K20 in combination” value ([3]; in combination with tioconazole) was 16 µg/mL, the “MIC of K20 in combination” value ([3]; in combination with voriconazole) was 4 µg/mL and the “Relative Activity (zone of inhibition diameter)” value [21] was “++”. The “Relative Activity (zone of inhibition diameter)” value [22] was “++” and the “Relative Activity (zone of inhibition diameter)” value [23] was “+++”.
